Test results from article PMC7600679, “Benzoxazole-Based Metal Complexes to Reverse Multidrug Resistance in Bacteria” (Antibiotics, 2020).
In brackets after ≈: the same amount, converted by molar mass.

Key:
[1] = test system: S. aureus ATCC 25923; assay: Real-time ethidium bromide accumulation (efflux pump inhibition); format: cell-based, Staphylococcus aureus; details: compounds at ¼ MIC, EB 1 μg/mL, minute 30
Method: (§1) Since multidrug resistance EPs are very important factors contributing to multidrug resistance (MDR) in both Gram-positive and Gram-negative bacteria, the inhibition of these pumps could reverse the resistant phenotype and restore the activity of antibiotics. The effect of compounds on ethidium bromide (EB) accumulation was determined by the automated EB method. This assay was used to determine how much of the fluorescent dye and pump substrate EB was accumulated by the bacterial cells in the presence of the tested compounds. The real-time accumulation of EB was monitored for 30 min in both S. aureus and E. coli strains.
(§2) The accumulation of the efflux pump substrate EB was monitored by the automated EB method using a LightCycler real-time thermocycler (LightCycler 1.5, Roche, Indianapolis, IN, USA). An aliquot of an overnight culture of the S. aureus strains in TSB medium was inoculated into fresh TSB medium, and it was incubated until it reached an optical density (OD) of 0.6 at 600 nm. In the case of E. coli strains, the medium applied in the assay was LB broth; the preparation of the inoculum was similar to the one of S. aureus. The cells were washed with phosphate buffered saline (PBS; pH 7.4) and centrifuged at 13,000 × g for 3 min, the pellets were re-suspended in PBS (pH 7.4), and the OD was calibrated to 0.6 at 600 nm. The compounds were measured at ¼ MIC concentration (in double-concentrated form) to the EB solution in PBS. The final concentration of EB was determined according to the MIC and the fluorescent signal produced by this amount of EB. In the case of all strains, the concentration of EB was 1 μg/mL. Then, 10 μL of the EB solution plus the compound were pipetted into standard glass capillary tubes of 20 µL maximum volume (Roche, Indianapolis, USA), and 10 μL of bacterial culture (OD of 0.6 at 600 nm) were transferred to the capillaries. The capillaries containing the samples were placed into the carousel, and the fluorescence was monitored at the FL-2 channel in every minute on a real-time basis.
(§3) Based on the data obtained, the relative fluorescence index (RFI) of the last time point (minute 30) was determined as follows:RFI = (RFtreated − RFuntreated)/RFuntreated(1) where RFtreated is the relative fluorescence (RF) at the last time point of the EB retention curve in the presence of an inhibitor, and RFuntreated is the relative fluorescence at the last time point of the EB retention curve of the untreated control having the solvent control (DMSO).

[2] = test system: S. aureus 272123 (MRSA); assay: as above; format: cell-based, Staphylococcus aureus; details: compounds at ¼ MIC (3 at 12.5 µM), VER at 25 µM, EB 1 μg/mL, minute 30
Method: as §1, §2, §3

[3] = test system: Enterobacter cloacae 31298; assay: Minimum inhibitory concentration (broth microdilution, CLSI); format: cell-based; details: E. cloacae 31298
Method: (§4) The following bacterial strains were applied in the QS tests: C. violaceum 026 as sensor strain and E. cloacae 31298 isolated from clinical wound (used as N-acyl-homoserine lactone (AHL) producer); this strain induced pigment production by C. violaceum and is a model strain to study QS interactions.
(§5) The minimum inhibitory concentrations (MICs) of compounds were determined in 96-well plates based on the Clinical and Laboratory Standard Institute guidelines (CLSI guidelines). The compounds were diluted in 100 μL of MHB. Then, 10^−4 dilution of an overnight bacterial culture in 100 μL of medium were added to each well, with the exception of the medium control wells.

[4] = test system: Chromobacterium violaceum 026; assay: as above; format: cell-based; details: C. violaceum 026
Method: as §4, §5

[5] = test system: S. aureus MRSA 272123; assay: Resistance modulation (MIC reduction) assay with CIP and TET; format: cell-based, Staphylococcus aureus; details: for Reduction of the MIC value of CIP: compound at a quarter of the MIC; for CIP MIC in combination with compounds: compound at ¼ MIC, value is the MIC of ciprofloxacin
Method: The resistance modulation effects of compounds with ciprofloxacin (CIP) and tetracycline (TET) antibiotics were evaluated by the MIC reduction method on the Gram-negative E. coli AG100, AG100 A, and the Gram-positive S. aureus ATCC and MRSA strains.
The chemosensitizing activity of benzoxazole-type ligands and their metal complexes was determined based on the MIC values of the antibiotics in the presence of sub-inhibitory concentrations of the compounds (¼ MIC) in both Gram-negative and Gram-positive strains. The MICs were determined in strains by the two-fold broth microdilution method in 96-well plates, using serial dilutions of TET and CIP. The first four rows contained two-fold dilutions of antibiotics, and combinations of the TET and CIP and tested compounds were transferred into the last four rows. The 10^−4 dilution of an overnight bacterial culture in 50 μL of MHB was then measured to each well, except for the medium control wells. The plates were kept at 37 °C for 18 h. MIC values of antibiotics and their combination with tested compounds were detected by visual inspection.

[6] = test system: E. coli AG100; assay: Real-time ethidium bromide accumulation (efflux pump inhibition, AcrAB-TolC); format: cell-based, Escherichia coli; details: compounds at ¼ MIC, EB 1 μg/mL, minute 30
Method: as §1, §2, §3

[7] = test system: Staphylococcus aureus ATCC 25923; assay: Minimum inhibitory concentration (broth microdilution, CLSI); format: cell-based; details: S. aureus ATCC 25923, 18 h, visual inspection
Method: (§6) The compounds were further investigated against two Gram-positive strains, S. aureus ATCC 25923 (MSSA), used as the methicillin susceptible reference strain, and the methicillin- and ofloxacin-resistant S. aureus 272123 clinical isolate (MRSA), which was given by Prof. Dr. Leonard Amaral (Institute of Hygiene and Tropical Medicine, Lisbon, Portugal).
as §5

[8] = test system: E. coli AG100 A; assay: Real-time ethidium bromide accumulation (efflux pump inhibition); format: cell-based, Escherichia coli; details: compounds at ¼ MIC, EB 1 μg/mL, minute 30
Method: as §1, §2, §3

[9] = test system: S. aureus 272123 (MRSA); assay: Minimum inhibitory concentration (broth microdilution, CLSI); format: cell-based, Staphylococcus aureus; details: 18 h, visual inspection
Method: as §6, §5

[10] = test system: E. coli AG100 A; assay: as above; format: cell-based, Escherichia coli; details: 18 h
Method: Wild-type E. coli K-12 AG100 strain (argE3 thi-1 rpsL xyl mtl Δ(gal-uvrB) supE44) expressing the AcrAB TolC EP at its basal level and its AcrAB-TolC deleted mutant E. coli K-12 AG100 A strain. The strains were donated by Prof. Dr. Hiroshi Nikaido (Department of Molecular and Cell Biology and Chemistry, University of California, Berkeley, CA, USA).
as §5

[11] = E. coli AG100 A (AcrAB-TolC deleted), visual inspection

Row | Structure (SMILES) | Relative fluorescence index (RFI) [1] | Relative fluorescence index (RFI) [2] | MIC ([3]; Enterobacter cloacae) | MIC ([4]; Chromobacterium violaceum) | Reduction of the MIC value of CIP [5] | CIP MIC in combination with compounds [5] | Relative fluorescence index (RFI) [6] | MIC ([7]; Staphylococcus aureus, ATCC25923) | Relative fluorescence index (RFI) [8] | MIC [9] | MIC ([9]; Staphylococcus aureus) | MIC ([10]; Escherichia coli, AG100A) | MIC [3] | MIC [4] | MIC [7] | MIC [10, 11]
1 | O=C(Cc1nc2ccccc2o1)C(F)F [Compound 3] | −0.01 | 0.13 | > 100 µM | > 100 µM | 2 fold | 6.25 µM | −0.07 | 100 µM (≈ 21.1 µg/mL) | −0.03 | 50 µM (≈ 10.6 µg/mL) | 50 µM (≈ 10.6 µg/mL) | 25 µM (≈ 5.28 µg/mL) | – | – | – | –
2 | [O-]C(=Cc1nc2ccccc2o1)C(F)(F)Cl.[O-]C(=Cc1nc2ccccc2o1)C(F)(F)Cl.[Zn+2] [Compound 5] | 0.03 | −0.13 | – | – | 2 fold | 6.25 µM | 0.37 | – | −0.19 | 3.125 µM | – | – | >100 µM | >100 µM | 12.5 µM | 12.5 µM
3 | [Fe+3].[O-]C(=Cc1nc2ccccc2o1)C(F)(F)F.[O-]C(=Cc1nc2ccccc2o1)C(F)(F)F.[O-]C(=Cc1nc2ccccc2o1)C(F)(F)F [Compound 12] | −0.02 | −0.02 | – | – | 2 fold | 6.25 µM | 0.04 | – | 0.09 | 25 µM | – | – | >100 µM | >100 µM | 50 µM | 50 µM
